Experimental data taken from PMC7614683, “A small molecule PI3Kα activator for cardioprotection and neuroregeneration” (Nature, 2023).
Like-named read-outs stand apart in the source and are kept apart here.

How the values were obtained:
[1] = biological target: protein kinases of the Z-LYTE panel (Homo sapiens, UniProt O75582); assay: SelectScreen Z-LYTE kinase activity assay (SI Table 6); format: biochemical
Protocol: (§1) 133 protein kinases and 7 lipid kinases were counterscreened, with 1938 used at 1 μM, using the Adapta, Lantha and Z-LYTE assays (SelectScreen Kinase Profiling Service; Thermofisher – experimental details of these assays can be found here: https://www.thermofisher.com/uk/en/home/industrial/pharma-biopharma/drug-discovery-development/target-and-lead-identification-and-validation/kinasebiology/kinase-activity-assays.html. The tree represention in KinMap[59] generated courtesy of Cell Signaling Technology, Inc. (www.cellsignal.com). mTORC1 (mTOR/RAPTOR/LST8) protein complex and ATM kinase and substrates were produced as previously described[57],[60]. Screening of 1938 was conducted using SuperSep Phos-Tag 50 μmol/l 100 x 100 x 6.6 mm 17-well (192-18001/199-18011) gels. For ATM assays, 100 nM ATM was incubated for 30 min at 30°C with 5 μM GST-p53 and 1 mM ATP, in the absence or presence of 200 μM 1938 in ATM Kinase Buffer (50 mM HEPES pH 7.5, 100 mM NaCl, 10% glycerol, 2 mM […], 5 mM MgCl2). As a positive control for ATM activation, the same reaction was carried out with 100 nM ATM/5 μM GST-p53/1 mM ATP in the presence of 100 nM Mre11-Rad50-Nbs1 (MRN) complex, a known activator of ATM[61]. For mTORC1 assays, 50 nM mTORC1 complex (mTOR/LST8/RAPTOR) was incubated for 3 h at 30°C with 15 μM 4E-BP1, 10 mM MgCl2 and 250 μM ATP, in the absence or presence of 200 μM 1938. As a ‘positive’ control, a higher concentration (150 nM) of mTORC1 complex (mTOR/LST8/RAPTOR) was incubated for 3 h at 30°C with 15 μM 4E-BP1, 10 mM MgCl2 and 250 μM ATP. Kinase reactions were quenched by addition of SDS-PAGE Loading Buffer (as per manufacturer’s instructions) and freezing at -20°C before being run on the Phos-tag gels at 150 V for 90 min. Gels were then stained using InstantBlue™ Coomassie, and quantified using BioRad Image Lab Software. Kinase assays were carried out in triplicate.

[2] = biological target: protein kinases of the Z-LYTE panel (Homo sapiens, UniProt P14616); assay: as above; format: biochemical
Protocol: as §1

[3] = biological target: protein kinases of the Z-LYTE panel (Homo sapiens, UniProt P49841); assay: as above; format: biochemical
Sequence of protein kinases of the Z-LYTE panel (Homo sapiens, UniProt P49841) (P49841 whole entry): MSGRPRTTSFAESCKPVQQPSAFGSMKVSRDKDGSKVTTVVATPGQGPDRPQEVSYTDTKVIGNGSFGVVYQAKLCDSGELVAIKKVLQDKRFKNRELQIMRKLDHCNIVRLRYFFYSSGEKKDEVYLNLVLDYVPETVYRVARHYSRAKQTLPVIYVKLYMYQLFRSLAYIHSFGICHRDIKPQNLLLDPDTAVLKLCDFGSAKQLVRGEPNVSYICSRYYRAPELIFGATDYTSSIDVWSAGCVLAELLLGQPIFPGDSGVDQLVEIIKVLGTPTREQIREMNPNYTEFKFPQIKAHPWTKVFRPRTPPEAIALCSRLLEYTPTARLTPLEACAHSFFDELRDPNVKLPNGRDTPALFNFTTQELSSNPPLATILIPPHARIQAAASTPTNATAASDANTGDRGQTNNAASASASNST
Protocol: as §1

[4] = biological target: protein kinases of the Z-LYTE panel (Homo sapiens, UniProt P51451); assay: as above; format: biochemical
Sequence of protein kinases of the Z-LYTE panel (Homo sapiens, UniProt P51451) (P51451 whole entry): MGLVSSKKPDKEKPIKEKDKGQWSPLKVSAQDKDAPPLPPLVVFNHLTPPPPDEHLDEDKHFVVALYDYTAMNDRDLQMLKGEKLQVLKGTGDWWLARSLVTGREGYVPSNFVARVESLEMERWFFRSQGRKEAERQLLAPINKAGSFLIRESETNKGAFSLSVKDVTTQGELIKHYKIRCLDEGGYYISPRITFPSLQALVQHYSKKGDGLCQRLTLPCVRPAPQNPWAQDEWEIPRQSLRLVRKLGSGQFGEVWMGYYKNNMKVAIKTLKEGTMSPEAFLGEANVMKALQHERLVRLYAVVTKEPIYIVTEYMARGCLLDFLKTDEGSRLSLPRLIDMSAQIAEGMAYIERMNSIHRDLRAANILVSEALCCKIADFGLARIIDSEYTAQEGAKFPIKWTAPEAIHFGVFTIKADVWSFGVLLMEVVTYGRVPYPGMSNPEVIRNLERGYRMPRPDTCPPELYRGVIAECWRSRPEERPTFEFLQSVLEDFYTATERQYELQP
Protocol: as §1

[5] = biological target: protein kinases of the Z-LYTE panel (Homo sapiens, UniProt Q04759); assay: as above; format: biochemical
Protocol: as §1

[6] = biological target: protein kinases of the Z-LYTE panel (Homo sapiens, UniProt Q8N4C8); assay: as above; format: biochemical
Sequence of protein kinases of the Z-LYTE panel (Homo sapiens, UniProt Q8N4C8) (Q8N4C8 whole entry): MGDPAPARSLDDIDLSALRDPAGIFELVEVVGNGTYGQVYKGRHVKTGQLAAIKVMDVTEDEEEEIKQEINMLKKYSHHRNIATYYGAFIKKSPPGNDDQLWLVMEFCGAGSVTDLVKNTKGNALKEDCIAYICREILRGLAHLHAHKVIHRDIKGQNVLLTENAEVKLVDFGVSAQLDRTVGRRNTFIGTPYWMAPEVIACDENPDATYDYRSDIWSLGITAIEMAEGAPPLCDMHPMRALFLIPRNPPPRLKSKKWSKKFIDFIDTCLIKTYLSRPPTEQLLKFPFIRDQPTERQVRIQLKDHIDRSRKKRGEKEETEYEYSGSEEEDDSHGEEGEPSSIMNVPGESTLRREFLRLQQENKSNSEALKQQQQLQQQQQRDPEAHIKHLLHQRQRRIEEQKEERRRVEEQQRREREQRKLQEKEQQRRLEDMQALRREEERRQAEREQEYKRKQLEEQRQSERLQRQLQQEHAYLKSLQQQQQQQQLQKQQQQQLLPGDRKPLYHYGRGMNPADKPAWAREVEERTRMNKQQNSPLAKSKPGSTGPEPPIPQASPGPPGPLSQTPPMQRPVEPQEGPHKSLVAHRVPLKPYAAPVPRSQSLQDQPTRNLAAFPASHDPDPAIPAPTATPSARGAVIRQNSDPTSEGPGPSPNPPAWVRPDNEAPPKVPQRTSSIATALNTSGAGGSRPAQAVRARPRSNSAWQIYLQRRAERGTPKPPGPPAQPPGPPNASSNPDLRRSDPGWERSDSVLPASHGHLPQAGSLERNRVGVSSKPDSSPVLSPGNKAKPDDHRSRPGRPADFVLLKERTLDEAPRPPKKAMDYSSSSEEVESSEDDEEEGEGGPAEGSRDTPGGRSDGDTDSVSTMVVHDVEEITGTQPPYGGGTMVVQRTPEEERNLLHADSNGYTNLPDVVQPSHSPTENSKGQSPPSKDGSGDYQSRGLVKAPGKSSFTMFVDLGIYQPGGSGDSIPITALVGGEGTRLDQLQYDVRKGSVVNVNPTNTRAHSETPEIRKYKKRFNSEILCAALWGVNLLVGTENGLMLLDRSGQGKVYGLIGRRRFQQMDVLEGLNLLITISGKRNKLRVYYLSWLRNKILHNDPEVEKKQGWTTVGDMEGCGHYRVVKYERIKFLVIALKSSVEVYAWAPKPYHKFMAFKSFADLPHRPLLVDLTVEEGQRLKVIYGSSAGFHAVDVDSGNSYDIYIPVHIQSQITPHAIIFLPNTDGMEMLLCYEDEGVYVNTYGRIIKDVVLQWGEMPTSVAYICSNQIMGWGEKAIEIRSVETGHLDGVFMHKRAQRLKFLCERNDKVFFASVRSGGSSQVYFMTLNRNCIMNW
Protocol: as §1

[7] = biological target: protein kinases of the Z-LYTE panel (Homo sapiens, UniProt Q9P0L2); assay: as above; format: biochemical
Sequence of protein kinases of the Z-LYTE panel (Homo sapiens, UniProt Q9P0L2) (Q9P0L2 whole entry): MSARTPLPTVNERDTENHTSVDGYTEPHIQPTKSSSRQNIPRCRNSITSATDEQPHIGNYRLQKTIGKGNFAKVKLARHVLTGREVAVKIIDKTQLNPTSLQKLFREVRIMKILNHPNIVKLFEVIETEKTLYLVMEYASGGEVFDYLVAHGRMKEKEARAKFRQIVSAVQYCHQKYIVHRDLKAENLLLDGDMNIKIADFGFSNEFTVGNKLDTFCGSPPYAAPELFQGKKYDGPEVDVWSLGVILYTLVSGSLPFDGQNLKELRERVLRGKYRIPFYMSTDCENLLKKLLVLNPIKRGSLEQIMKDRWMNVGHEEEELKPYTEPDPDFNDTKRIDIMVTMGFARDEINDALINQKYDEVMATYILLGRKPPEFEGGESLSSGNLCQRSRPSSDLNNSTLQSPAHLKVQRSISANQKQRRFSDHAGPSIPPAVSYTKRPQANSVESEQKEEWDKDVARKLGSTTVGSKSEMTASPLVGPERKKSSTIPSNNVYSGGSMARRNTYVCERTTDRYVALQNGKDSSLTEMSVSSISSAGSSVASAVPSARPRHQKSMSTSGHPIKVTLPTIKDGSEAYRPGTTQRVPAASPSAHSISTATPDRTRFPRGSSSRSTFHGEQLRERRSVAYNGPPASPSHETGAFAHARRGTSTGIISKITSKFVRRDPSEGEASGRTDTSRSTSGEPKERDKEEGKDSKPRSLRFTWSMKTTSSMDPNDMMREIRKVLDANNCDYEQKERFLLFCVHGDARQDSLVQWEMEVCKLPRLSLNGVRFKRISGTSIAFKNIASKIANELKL
Protocol: as §1

AAK1 = AAK1 (Homo sapiens, UniProt Q2M2I8); assay: SelectScreen LanthaScreen Binding; conditions: 1000 nM
Sequence of AAK1 (Q2M2I8 whole entry): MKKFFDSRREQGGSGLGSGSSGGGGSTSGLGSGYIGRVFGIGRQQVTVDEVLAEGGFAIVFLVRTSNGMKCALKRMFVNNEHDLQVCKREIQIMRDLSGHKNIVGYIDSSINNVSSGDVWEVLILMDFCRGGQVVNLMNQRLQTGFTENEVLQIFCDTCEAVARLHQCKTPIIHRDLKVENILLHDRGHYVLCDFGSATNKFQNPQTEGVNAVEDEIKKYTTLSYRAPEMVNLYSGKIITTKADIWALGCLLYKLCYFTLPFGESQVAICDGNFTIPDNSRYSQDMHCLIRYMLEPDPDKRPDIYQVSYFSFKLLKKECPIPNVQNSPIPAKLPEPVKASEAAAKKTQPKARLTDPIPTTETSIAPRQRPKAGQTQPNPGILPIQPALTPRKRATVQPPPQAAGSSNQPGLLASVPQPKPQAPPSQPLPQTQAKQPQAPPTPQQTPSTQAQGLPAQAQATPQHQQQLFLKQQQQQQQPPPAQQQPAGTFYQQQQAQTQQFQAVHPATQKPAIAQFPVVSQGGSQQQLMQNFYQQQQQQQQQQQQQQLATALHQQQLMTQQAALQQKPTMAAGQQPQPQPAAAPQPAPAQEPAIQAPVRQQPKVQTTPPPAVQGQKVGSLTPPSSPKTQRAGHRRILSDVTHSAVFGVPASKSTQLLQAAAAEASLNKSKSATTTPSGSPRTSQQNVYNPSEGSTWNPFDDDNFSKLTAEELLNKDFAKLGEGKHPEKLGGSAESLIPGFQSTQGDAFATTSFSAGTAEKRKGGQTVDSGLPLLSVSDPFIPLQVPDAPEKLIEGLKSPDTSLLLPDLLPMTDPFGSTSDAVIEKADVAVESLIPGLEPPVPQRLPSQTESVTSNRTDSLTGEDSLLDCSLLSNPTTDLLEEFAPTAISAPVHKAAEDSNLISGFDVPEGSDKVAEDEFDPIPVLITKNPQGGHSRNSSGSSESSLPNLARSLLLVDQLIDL
How it was run: (§2)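 A single compound concentration of 1 μM was profiled in the vendor's Adapta, Lantha and Z-LYTE kinase assays. In gel-based follow-ups with 200 μM compound, phosphorylation was resolved on Phos-tag SDS-PAGE and quantified by Coomassie. The ATM run used 1 mM ATP with GST-p53 for 30 min, and the mTORC1 run used 250 μM ATP with 4E-BP1 for 3 h.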

DYRK2 = biological target: T1, DYRK2 (Homo sapiens, UniProt Q92630); assay: SelectScreen LanthaScreen Binding; conditions: 1000 nM
T1 sequence (Q92630 1-601): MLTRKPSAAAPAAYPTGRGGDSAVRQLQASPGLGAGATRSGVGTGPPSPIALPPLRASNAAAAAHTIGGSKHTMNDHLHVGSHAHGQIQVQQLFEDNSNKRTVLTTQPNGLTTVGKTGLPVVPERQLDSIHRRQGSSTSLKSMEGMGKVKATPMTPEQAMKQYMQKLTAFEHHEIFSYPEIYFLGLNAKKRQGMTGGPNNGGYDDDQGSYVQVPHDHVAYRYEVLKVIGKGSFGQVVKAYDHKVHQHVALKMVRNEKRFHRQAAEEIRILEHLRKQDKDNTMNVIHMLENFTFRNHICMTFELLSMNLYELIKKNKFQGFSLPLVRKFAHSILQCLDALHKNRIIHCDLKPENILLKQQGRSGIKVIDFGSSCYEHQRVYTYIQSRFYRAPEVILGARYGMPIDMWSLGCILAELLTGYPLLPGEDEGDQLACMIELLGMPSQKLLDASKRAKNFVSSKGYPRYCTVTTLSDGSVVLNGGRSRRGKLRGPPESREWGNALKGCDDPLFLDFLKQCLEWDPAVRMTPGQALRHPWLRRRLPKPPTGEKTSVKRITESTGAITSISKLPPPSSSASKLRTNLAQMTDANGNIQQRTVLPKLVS
How it was run: as §2

TGFBR1 (ALK5) = biological target: T2, TGFBR1 (ALK5) (Homo sapiens, UniProt P36897); assay: SelectScreen LanthaScreen Binding; conditions: 1000 nM
T2 sequence (P36897 34-503): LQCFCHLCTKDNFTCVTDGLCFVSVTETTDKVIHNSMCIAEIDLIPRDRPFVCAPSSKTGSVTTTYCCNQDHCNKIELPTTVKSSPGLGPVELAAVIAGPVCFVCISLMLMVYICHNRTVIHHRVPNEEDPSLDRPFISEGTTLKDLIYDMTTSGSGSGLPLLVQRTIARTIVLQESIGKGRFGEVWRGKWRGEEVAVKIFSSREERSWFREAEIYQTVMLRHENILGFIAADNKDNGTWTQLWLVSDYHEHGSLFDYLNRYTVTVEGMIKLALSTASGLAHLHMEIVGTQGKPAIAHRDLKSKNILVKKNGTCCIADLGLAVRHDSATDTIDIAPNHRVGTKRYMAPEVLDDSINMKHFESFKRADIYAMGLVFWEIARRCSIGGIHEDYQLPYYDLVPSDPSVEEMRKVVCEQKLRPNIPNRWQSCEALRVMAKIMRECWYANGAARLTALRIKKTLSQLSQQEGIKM
How it was run: as §2

Sequence of protein kinases of the Z-LYTE panel (Homo sapiens, UniProt O75582) (O75582 whole entry): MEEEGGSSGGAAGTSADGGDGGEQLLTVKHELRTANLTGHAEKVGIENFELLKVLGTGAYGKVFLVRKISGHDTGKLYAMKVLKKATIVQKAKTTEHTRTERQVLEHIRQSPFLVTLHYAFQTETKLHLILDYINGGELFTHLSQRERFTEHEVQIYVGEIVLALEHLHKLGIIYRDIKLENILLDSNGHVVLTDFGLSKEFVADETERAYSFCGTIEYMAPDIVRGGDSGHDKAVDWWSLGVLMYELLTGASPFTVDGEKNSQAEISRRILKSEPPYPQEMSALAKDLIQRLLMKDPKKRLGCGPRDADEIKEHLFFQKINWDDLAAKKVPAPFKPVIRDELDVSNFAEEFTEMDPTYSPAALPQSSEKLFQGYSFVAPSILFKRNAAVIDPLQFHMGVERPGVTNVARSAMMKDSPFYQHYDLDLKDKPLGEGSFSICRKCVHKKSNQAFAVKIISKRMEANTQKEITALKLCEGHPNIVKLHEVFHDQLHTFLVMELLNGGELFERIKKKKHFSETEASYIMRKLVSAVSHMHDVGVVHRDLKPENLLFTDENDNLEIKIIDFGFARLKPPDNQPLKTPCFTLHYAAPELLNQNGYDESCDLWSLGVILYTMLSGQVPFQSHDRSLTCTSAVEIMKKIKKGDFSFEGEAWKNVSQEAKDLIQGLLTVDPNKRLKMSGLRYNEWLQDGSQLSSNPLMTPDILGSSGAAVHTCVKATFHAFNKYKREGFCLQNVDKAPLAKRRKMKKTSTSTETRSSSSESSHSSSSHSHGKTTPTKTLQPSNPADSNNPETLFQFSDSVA

CCN1CCN(c2ccc(Nc3cc(Nc4cccc5c4N(C(C)=O)CC5)ccn3)cc2)CC1 [Compound 1938]
inhibition at 1 µM ([1]; read-out: % Inhibition Point 1): 1.64% | inhibition at 1 µM ([1]; read-out: % Inhibition Point 2): 4% | inhibition at 1 µM ([1]; read-out: % Inhibition mean): 3% | inhibition at 1 µM ([2]; read-out: % Inhibition Point 1): 9% | inhibition at 1 µM ([2]; read-out: % Inhibition Point 2): 8% | inhibition at 1 µM ([2]; read-out: % Inhibition mean): 8% | inhibition at 1 µM ([3]; read-out: % Inhibition Point 1): 5.38% | inhibition at 1 µM ([3]; read-out: % Inhibition Point 2): 5% | inhibition at 1 µM ([3]; read-out: % Inhibition mean): 5% | inhibition at 1 µM ([4]; read-out: % Inhibition Point 1): 16% | inhibition at 1 µM ([4]; read-out: % Inhibition Point 2): 6.35% | inhibition at 1 µM ([4]; read-out: % Inhibition mean): 11% | inhibition at 1 µM ([5]; read-out: % Inhibition Point 1): 12% | inhibition at 1 µM ([5]; read-out: % Inhibition Point 2): 6.62% | inhibition at 1 µM ([5]; read-out: % Inhibition mean): 9% | inhibition at 1 µM ([6]; read-out: % Inhibition Point 1): 28% | inhibition at 1 µM ([6]; read-out: % Inhibition Point 2): 31% | inhibition at 1 µM ([6]; read-out: % Inhibition mean): 30% | inhibition at 1 µM ([7]; read-out: % Inhibition Point 1): 5.55% | inhibition at 1 µM ([7]; read-out: % Inhibition Point 2): 3.46% | inhibition at 1 µM ([7]; read-out: % Inhibition mean): 4.5% | % Displacement Point 1 (AAK1): 26% | % Displacement Point 2 (AAK1): 25% | % Displacement mean (AAK1): 25% | % Displacement Point 1 (DYRK2): 23% | % Displacement Point 2 (DYRK2): 1% | % Displacement mean (DYRK2): 12% | % Displacement Point 1 (TGFBR1 (ALK5)): 19% | % Displacement Point 2 (TGFBR1 (ALK5)): 22% | % Displacement mean (TGFBR1 (ALK5)): 21%
